# Compound: Cc1ccc(NC(=O)c2ccc(CN3CCN(C)CC3)cc2)cc1Nc1nc(-c2cccnc2)cs1 [Masitinib] + Cc1nc(NC(=O)N2CCC[C@H]2C(N)=O)sc1-c1ccnc(C(C)(C)C(F)(F)F)c1 [Alpelisib] (partner 2 µM)
# Assay: relative viability (nuclei count vs DMSO), 5 days (fraction); higher = more cells survive
# Conditions: first compound 0.01 µM
# How it was run: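 Relative viability is defined as nuclei in treated wells over nuclei in vehicle wells. Duplicate plates were run and medians reported. Lung cancer cell lines in 1536-well plates were dosed by pin tool one day after seeding, with one drug or with a fixed anchor-drug dose plus five library-drug doses (not always all listed) in √10 steps, and nuclei were counted after 5 days.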
row,Cell Line,relative viability
1,NCI-H838,0.912
2,NCI-H1651,0.841
3,EBC-1,0.835
4,NCI-H1734,0.616
5,NCI-H2009,1.15
6,LU99A,0.554
7,PC-14,0.915
8,LCLC-103H,0.711
9,NCI-H596,0.341
10,NCI-H2228,0.897
11,EMC-BAC-2,0.701
12,NCI-H2087,1.07
13,Calu-6,1.02
14,HCC-366,0.33
15,NCI-H1703,0.226
16,NCI-H647,1.08
17,LK-2,1.28

row,Cell Line,relative viability
1,NCI-H2126,0.802
2,NCI-H1793,0.846
3,COR-L23,0.862
4,COR-L 105,1
5,IA-LM,0.823
6,HCC-44,0.748
7,A549,0.773
8,NCI-H2023,0.581
9,NCI-H520,0.914
10,SW 1573,0.89
11,NCI-H1299,1.1
12,NCI-H1563,1.02
13,NCI-H1792,0.69
14,SK-LU-1,1.12
15,SK-MES-1,1.07
16,NCI-H661,0.748

# Same assay, conditions: first compound 0.03162 µM
row,Cell Line,relative viability
1,NCI-H838,0.865
2,NCI-H1651,1.01
3,EBC-1,0.713
4,NCI-H1734,0.715
5,NCI-H2009,1.12
6,LU99A,0.544
7,PC-14,0.865
8,LCLC-103H,0.913
9,NCI-H596,0.462
10,NCI-H2228,0.708
11,EMC-BAC-2,0.714
12,NCI-H2087,1.05
13,Calu-6,1.01
14,HCC-366,0.294
15,NCI-H1703,0.255
16,NCI-H647,1.26
17,LK-2,0.609

row,Cell Line,relative viability
1,NCI-H2126,0.766
2,NCI-H1793,0.683
3,H3255,0.84
4,COR-L23,0.81
5,COR-L 105,1.02
6,IA-LM,0.758
7,HCC-44,0.752
8,A549,0.712
9,NCI-H2023,0.62
10,SW 1573,0.768
11,NCI-H1299,1.1
12,NCI-H1563,0.964
13,NCI-H1792,0.203
14,SK-LU-1,1.14
15,SK-MES-1,0.946
16,NCI-H661,0.577

# Same assay, conditions: first compound 0.1 µM
row,Cell Line,relative viability
1,NCI-H838,0.992
2,NCI-H1651,0.99
3,EBC-1,1.01
4,NCI-H1734,0.764
5,NCI-H2009,1.24
6,LU99A,0.549
7,PC-14,1.11
8,LCLC-103H,0.917
9,NCI-H596,0.625
10,NCI-H2228,0.835
11,EMC-BAC-2,0.841
12,NCI-H2087,1.19
13,Calu-6,1.02
14,HCC-366,0.376
15,NCI-H1703,0.228
16,NCI-H647,1.19
17,LK-2,1.38

row,Cell Line,relative viability
1,NCI-H2126,0.832
2,NCI-H1793,0.878
3,H3255,0.766
4,COR-L23,0.861
5,COR-L 105,1.05
6,IA-LM,1.07
7,HCC-44,0.88
8,A549,1.01
9,NCI-H2023,0.6
10,NCI-H520,0.966
11,SW 1573,0.873
12,NCI-H1299,1.27
13,NCI-H1563,0.839
14,NCI-H1792,0.61
15,SK-LU-1,0.984
16,SK-MES-1,1.08
17,NCI-H661,0.623

# Same assay, conditions: first compound 0.3162 µM
row,Cell Line,relative viability
1,NCI-H838,0.769
2,NCI-H1651,0.947
3,EBC-1,0.715
4,NCI-H1734,0.383
5,NCI-H2009,1.16
6,LU99A,0.547
7,PC-14,1.01
8,LCLC-103H,0.992
9,NCI-H596,0.397
10,NCI-H2228,0.685
11,EMC-BAC-2,0.767
12,NCI-H2087,1.15
13,Calu-6,0.872
14,HCC-366,0.315
15,NCI-H1703,0.171
16,NCI-H647,1.28
17,LK-2,1.15

row,Cell Line,relative viability
1,NCI-H2126,0.661
2,NCI-H1793,0.82
3,H3255,0.49
4,COR-L23,0.848
5,COR-L 105,0.879
6,IA-LM,0.762
7,HCC-44,0.69
8,A549,0.938
9,NCI-H2023,0.518
10,NCI-H520,0.826
11,SW 1573,0.831
12,NCI-H1299,1.11
13,NCI-H1563,1.13
14,NCI-H1792,0.65
15,SK-LU-1,1.31
16,SK-MES-1,0.921
17,NCI-H661,0.384

# Same assay, conditions: first compound 1 µM
row,Cell Line,relative viability
1,NCI-H838,0.957
2,NCI-H1651,1
3,EBC-1,0.822
4,NCI-H1734,0.658
5,NCI-H2009,1.18
6,LU99A,0.449
7,PC-14,0.846
8,LCLC-103H,0.971
9,NCI-H596,0.435
10,NCI-H2228,0.844
11,EMC-BAC-2,0.783
12,NCI-H2087,1.08
13,Calu-6,0.923
14,HCC-366,0.382
15,NCI-H1703,0.197
16,NCI-H647,1.1
17,LK-2,1.3
18,NCI-H2126,0.712
19,NCI-H1793,0.636
20,H3255,0.675
21,COR-L23,0.852
22,COR-L 105,1.15
